# Source: patent US12195452B2, “N-(4-(oxazol-5-yl)phenyl) chromane-3-carboxamide derivatives and related compounds as stimulators of the production of retinal precursor cells for the treatment of neuroretinal diseases” (ENDOGENA THERAPEUTICS, INC., priority 2018, dated 2025)
# Tested on: retinal precursor cells
# Assay: Sphere passaging and high-throughput drug screening: proliferation of retinal precursor cells from the ciliary epithelium, cell number after one week
# Type: cell-based, mammalian
# Details: for Cell proliferation within one week [%]: control experiment (absence of a compound) = 100, cells grown for one week; for increase of cell proliferation: within one week, over control
# Protocol: Kynurenic Acid (0.2 mg/mL), trypsin (1.33 mg/mL), and hyaluronidase (0.67 mg/mL) were weighed out and dissolved in high magnesium/low calcium artificial cerebral spinal fluid (aCSF) at 37° C. Fibroblast growth factor 2 (FGF2; 10 ng/mL) and heparin (2 μg/mL) were added to 100 mL of serum-free media (SFM). Ovomucoid trypsin inhibitor (1 mg/mL) was dissolved in warm SFM and sterile filtered ([…]).
# A dissecting microscope, cold light source, and sterile surgical instruments were set up inside of a sterile biological safety cabinet (BSC). Mammalian eyes were enucleated and placed in a petri dish containing cold, sterile aCSF. Under the dissecting microscope, hair, connective tissue, and the dorsal and ventral oblique muscles were cleared from the scleral/corneal border with two sets of forceps. Next, curved or angled micro-dissecting scissors were used to cleave any remaining extraocular muscle tissue, the optic nerve, and cut the eyeball into symmetrical halves; beginning and finishing the cut from the hole left by the optic nerve. Using two sets of forceps to grasp the cornea, the two eye halves were peeled apart. The lens, optic nerve, and vitreous were separated from the eye shells and the eye shells were transferred into a new petri dish (also containing cold, sterile aCSF). To isolate the ciliary epithelium (CE), eye shells were oriented with the cornea on the right and retinal pigmented epithelium (RPE) on the left. A pair of straight forceps were used to pin down the eye shell on the RPE side while a scalpel blade was inserted between the CE and the iris, using pressure to slice the iris/cornea side off from the rest of the shell. Next, the scalpel was run along the border between the CE and the RPE to obtain the CE isolated as a thin strip of tissue. The CE strips were then transferred to a 35 mm dish containing 2 mL of dispase solution (Sigma; T1005) and incubated for 10 minutes at 37° C. Next, the strips were transferred from dispase into a 35 mm dish containing 2 mL of sterile filtered kynurenic acid, trypsin and hyaluronidase solution and incubated at 37° C. for 10 minutes. After incubation, the dish was returned to the dissecting scope, and the CE strips were pinned down with straight, non-serrated forceps, while non-serrated curved forceps were used to scrape the CE off from the underlying sclera. The bare scleral strips were then discarded, such that only the CE cells remained in the enzyme solution. Using a fire-polished, cotton-plugged glass pipette, the cells and enzyme solution were transferred to a 15 mL tube and triturated approximately 45 times to break apart the tissue. The 15 mL tube/cell suspension was centrifuged for 5 minutes at 1500 rpm. The supernatant was gently aspirated from the resulting pellet using a fire-polished, cotton-plugged glass pipette and 2 mL of trypsin inhibitor solution was added to the pellet. Using a small borehole, fire-polished, cotton-plugged glass pipette, the sample was triturated approximately 45 times until it was a single-cell suspension. The 15 mL tube/cell suspension was centrifuged for 5 minutes at 1500 rpm. The supernatant was gently aspirated from the resulting pellet and 1-2 mL of SFM with FGF2 and heparin (plating media) was added. The cells and media were mixed to ensure a uniform cell suspension and a 10 uL sample was taken and cell density was determined. The cells were then seeded and cultured at 10c/μL in culture-treated plates or flasks. After one week, roughly 1 in 500 cells proliferated to form free-floating, clonal spheres greater than 80 μm in diameter.
# Human-derived spheres were passaged using the kynurenic acid, trypsin, hyaluronidase enzyme solution with the addition of collagenase I (0.5 mg/mL), collagenase II (0.5 mg/mL) and elastase (0.1 mg/mL). Mouse-derived spheres were passaged using hyaluronidase (0.67 mg/mL), collagenase I (0.5 mg/mL), and collagenase II (0.5 mg/mL) dissolved in Accustase solution (Sigma; SCR005). […]
SMILES,Cell proliferation within one week [%],increase of cell proliferation [%]
"COc1ccc2c(c1)CC(C(=O)Nc1ccc(-c3ccncc3)c(OC)c1)CO2 (racemic) [Compound 16, 6-methoxy-N-(3-methoxy-4-(pyridin-4-yl)phenyl)chromane-3-carboxamide]",143,43
"O=C(Nc1ccc(-c2cnco2)cc1OC(F)F)C1COc2ccccc2C1 (racemic) [Compound 24, N-(2-(difluoromethoxy)-4-(oxazol-5-yl)phenyl)chroman-3-carboxamide]",126,
"O=C(Nc1ccc(-c2cnco2)c(Cl)c1)C1CCc2ccccc21 (racemic) [Compound 33, N-(3-chloro-4-(oxazol-5-yl)phenyl)-2,3-dihydro-1H-indene-1-carboxamide]",116,
"O=C(Nc1ccc(-c2cnco2)c(Cl)c1)C1CCOc2ccccc21 (racemic) [Compound 2, N-(3-chloro-4-(oxazol-5-yl)phenyl) chromane-4-carboxamide]",128,
"O=C(Nc1ccc(-c2cnco2)c(Cl)c1)C1Cc2ccccc2C1 (racemic) [Compound 36, N-(3-chloro-4-(oxazol-5-yl)phenyl)-2,3-dihydro-1H-indene-2-carboxamide]",124,
"COc1ccc2c(c1)OC(C(=O)Nc1ccc(-c3cnco3)c(F)c1)CO2 (racemic) [Compound 7, N-(3-fluoro-4-(oxazol-5-yl)phenyl)-7-methoxy-2,3-dihydrobenzo[b][1,4]dioxine-2-carboxamide]",123,
"O=C(Nc1ccc(-c2cnco2)c(Cl)c1)C1COc2ccc(Cl)cc2C1 (racemic) [Compound 38, 6-chloro-N-(3-chloro-4-(oxazol-5-yl)phenyl)chromane-3-carboxamide]",122,58
"COc1ccc2c(c1)OC(C(=O)Nc1ccc(-c3cnco3)c(Cl)c1)CO2 (racemic) [Compound 8, N-(3-chloro-4-(oxazol-5-yl)phenyl)-7-methoxy-2,3-dihydrobenzo[b][1,4]dioxine-2-carboxamide]",117,
"COc1cc(NC(=O)C2CCOc3ccccc32)ccc1-c1cnco1 (racemic) [Compound 11, N-(3-methoxy-4-(oxazol-5-yl)phenyl) chromane-4-carboxamide]",140,40
"COc1cc(NC(=O)C2COc3ccccc3O2)ccc1-c1cnco1 (racemic) [Compound 13, N-(3-methoxy-4-(oxazol-5-yl)phenyl)-2,3-dihydrobenzo[b][1,4]dioxine-2-carboxamide]",137,
"O=C(Nc1ccc(-c2cnco2)c(Cl)c1)C1COc2ccccc21 (racemic) [Compound 35, N-(3-chloro-4-(oxazol-5-yl)phenyl)-2,3-dihydrobenzofuran-3-carboxamide]",125,
"O=C(Nc1ccc(-c2cnco2)c(Cl)c1)C1COc2c(F)cc(F)cc2C1 (racemic) [Compound 39, N-(3-chloro-4-(oxazol-5-yl)phenyl)-6,8-difluorochromane-3-carboxamide]",132,
